The text below walks through data of patent publication US6566064B1, “Method for anticipating sensitivity to medicine for osteoporosis” (Nipro Corporation, priority 1999, dated 2003).

Like-named read-outs stand apart in the source and are kept apart here.

The subject of assay [1] is Japanese females after menopause. Briefly: Change in bone mineral density after administration of a medicine, by VDR/ER/ApoE3 genotype (Reference Example 2). In kind it is in vivo, human. How it is done: (§1) The 177 Japanese females after the polymorphism analysis as described above were each measured for bone mineral density. Then, one of vitamin D, estrogen, and vitamin K2 was administered to the patients for 6 months. The administration amount was 1μg/day for vitamin D, 0.312 mg/day for estrogen, and 45 mg/day for vitamin K2. After 6 months, the bone mineral density was measured again and an index of change in bone mineral density between before and after the administration of a medicine was obtained. A value obtained by subtracting an anticipated value of therapeutic effect of each medicine (total average therapeutic effect on randomly sampled patients; Table 3) from an average index of change in bone mineral density for each genotype was defined as sensitivity to a medicine for each genotype.
Blood was collected from 167 Japanese females after menopause randomly selected and blood cells were fractionated and genome DNA was extracted and purified by conventional methods. A VDR gene fragment, an ER gene fragment and an ApoE gene fragment were separately amplified using the genome DNA as a template and the same primer pairs as in Reference Example 1 under the same amplification conditions.
After treating the gene amplification reaction mixtures with a restriction enzyme respectively, the reaction mixtures were subjected to agarose gel electrophoresis. In the case where each amplification product was cleaved with the restriction enzyme at the polymorphism site, bands of 4.6 kbp and 2.6 kbp were detected for the VDR amplification product, bands of 900 bp and 400 bp were detected for the ER amplification product, and bands of 72, 48, 38, 35, 19, 17, and 15 bp were detected for the ApoE amplification product.
To detect ApoE3 type alleles, the amplification products were treated with Hha I, and were subjected to agarose electrophoresis gel. After the electrophoresis, the gels were dyed with ethidium bromide and polymorphisms of the ApoE genes were discriminated based on the band patterns and ApoE3 types identified as a combination of bands as below described.
The 8 polymorphism groups were classified (Table 4).

For assay [2] the test system is unchanged. Briefly: Change in bone mineral density after 6 month administration of a medicine, by VDR/ER/ApoE4 genotype (Reference Example 1). The assay is classed as in vivo, human. Particulars: for Average therapeutic effect (%) - Anticipated therapeutic effect (%) / Anticipated therapeutic effect value (index of change in bone mineral density) after 6 month administration of a medicine, Average: 6 months; for Anticipated therapeutic effect value (index of change in bone mineral density) after 6 month administration of a medicine, Average: total average on randomly sampled patients, vitamin D 1 μg/day, estrogen 0.312 mg/day, vitamin K2 45 mg/day.
Excerpt: In the present invention, the pluralities of remedies for osteoporosis are preferably vitamin D, estrogen, and vitamin K2. Here, the sensitivity to a remedy for osteoporosis means the degree of therapeutic effect of the remedy on osteoporosis. That is, in the case where a medicine A is higher in therapeutic effect than a medicine B in a patient, “the sensitivity of the patient to the medicine A is higher than the sensitivity to the medicine B”. In the present invention, using a change in bone mineral density before and after administration of a medicine as an index of sensitivity, it is defined that the greater the value of “index of change in bone mineral density”−“index of change in anticipated bone mineral density”, the higher is the sensitivity to the medicine.
Blood was collected from 177 Japanese females after menopause randomly selected and blood cells were fractionated and genome DNA was extracted and purified by conventional methods. A VDR gene fragment, an ER gene fragment, and an ApoE gene fragment were separately amplified using the genome DNA as a template and the following primer pairs.
The PCR conditions were denaturation: 94° C., 60 seconds; annealing: 62° C., 60 seconds; elongation: 72° C., 60 seconds (30 cycles) for the VDR gene, denaturation: 94° C., 30 seconds; annealing: 65° C., 30 seconds; elongation: 72° C., 30 seconds (30 cycles) for the ER gene, and denaturation: 94° C., 30 seconds; annealing: 61° C., 40 seconds; elongation: 72° C., 90 seconds (30 cycles) for the ApoE gene. This PCP amplification gave a VDR gene fragment of 7.2 kbp, an ER gene fragment of 1.3 kbp, and an ApoE gene fragment of 244 bp containing polymorphism sites, respectively. After treating a VDR gene amplification reaction mixture with Bsm I, an ER gene amplification reaction mixture with Xba I, and an ApoE gene amplification reaction mixture with Hha I, the reaction mixtures were subjected to agarose gel electrophoresis. In the case where each amplification product was cleaved with the restriction enzyme at the polymorphism site, bands of 4.6 kbp and 2.6 kbp were detected for the VDR amplification product, bands of 900 bp and 400 bp were detected for the ER amplification product, and bands of 72,48, 38, 35, 19, 17, and 15 bp were detected for the ApoE amplification product.
The band of 72 bp was not detected in the case where there is no typE4 (that is, 4(−)). After the electrophoresis, the gels were dyed with ethidium bromide and polymorphisms of the VDR, ER, and ApoE genes were discriminated based on the band patterns and classified into 8 polymorphism groups (Table 3).
as §1

The conditions of assay [3]: cited from earlier work.
The conditions of assay [4]: VDR genotype A (not cleaved with Apa I) compared with genotype a; cited from earlier work.
For assay [5] the following is noted: DBP genotype group of the GC2-2 type compared with the other groups; cited from earlier work.

Consider `CC(C)=CCC/C(C)=C/CC/C(C)=C/CC/C(C)=C/CC1=C(C)C(=O)c2ccccc2C1=O` [Vitamin K2, vitamin K2], for which the “Average therapeutic effect (%) - Anticipated therapeutic effect (%)” value (from here on “Average therapeutic effect (%)”) in assay [1] (genotype B(+)X(+)3(+)) was 3.248%; in assay [1] (genotype B(+)X(−)3(+)), 1.852%; in assay [1] (genotype B(−)X(+)3(+)), −0.2083%; in assay [1] (genotype B(−)X(−)3(+)) it was −0.8443%; in assay [1] (genotype B(−)X(−)3(−)), −2.855%; in assay [2] (genotype B(+)x(+)4(−)), 1.46%. Further, the “Average therapeutic effect (%)” value is recorded as −0.59% in assay [2] (genotype B(+)x(−)4(+)); 1.08% in assay [2] (genotype B(+)x(−)4(−)); 0.60% in assay [2] (genotype B(−)X(+)4(−)); −2.68% in assay [2] (genotype B(−)X(−)4(+)); 0.68% in assay [2] (genotype B(−)X(−)4(−)). The “sensitivity to the medicine relative to the other two medicines” value in assay [2] (genotypes [B(−) X(−) 4(−)] and [B(+) X(−) 4(−)]) was “higher than the sensitivity to vitamin D and the sensitivity to estrogen”. Further, the “Anticipated therapeutic effect value (index of change in bone mineral density) after 6 month administration of a medicine, Average” value in assay [2] worked out at 0.59%. The “sensitivity to vitamin K2” value in assay [3] (ApoE4(+) group compared with ApoE4(−) group) is “significantly lower”.
Consider vitamin D, for which the “sensitivity to vitamin D” value is “more sensitive” in assay [4], “higher in sensitivity” in assay [5] and “significantly lower” in assay [3] (VDR genotype AAB compared with aabb). Also, the “Average therapeutic effect (%)” value in assay [1] (genotype B(+)X(+)3(+)) was −0.6927%; in assay [1] (genotype B(+)X(+)3(−)), 0.461%; in assay [1] (genotype B(+)X(−)3(+)) it was 0.02042%; in assay [1] (genotype B(+)X(−)3(−)), 2.234%; in assay [1] (genotype B(−)X(+)3(+)), 1.643%; in assay [1] (genotype B(−)X(+)3(−)), −3.114%. Besides, the “Average therapeutic effect (%)” value is on record as 0.4017% in assay [1] (genotype B(−)X(−)3(+)); 1.498% in assay [1] (genotype B(−)X(−)3(−)); 0.46% in assay [2] (genotype B(+)x(+)4(+)); −1.75% in assay [2] (genotype B(+)x(+)4(−)); −0.27% in assay [2] (genotype B(+)x(−)4(+)); −0.66% in assay [2] (genotype B(+)x(−)4(−)). Also, the “Average therapeutic effect (%)” value in assay [2] (genotype B(−)X(+)4(+)) came to 0.34%; in assay [2] (genotype B(−)X(+)4(−)), 0.37%; in assay [2] (genotype B(−)X(−)4(+)), 0.56%; in assay [2] (genotype B(−)X(−)4(−)), 0.05%. The “sensitivity to the medicine relative to the other two medicines” value in assay [2] (genotype [B(−) X(−) 4(+)]) was “higher than the sensitivity to vitamin K2 and the sensitivity to estrogen”. In assay [2], the “Anticipated therapeutic effect value (index of change in bone mineral density) after 6 month administration of a medicine, Average” value worked out at 1.15%.
Take estrogen: the “Average therapeutic effect (%)” value in assay [1] (genotype B(+)X(+)3(+)) is recorded as 0.4144%; in assay [1] (genotype B(+)X(−)3(+)), −0.8961%; in assay [1] (genotype B(+)X(−)3(−)), 0.03227%; in assay [1] (genotype B(−)X(+)3(+)), 3.741%; in assay [1] (genotype B(−)X(+)3(−)), 4.514%; in assay [1] (genotype B(−)X(−)3(+)) it was −0.07099%. In addition, the “Average therapeutic effect (%)” value is recorded as −1.151% in assay [1] (genotype B(−)X(−)3(−)); 1.74% in assay [2] (genotype B(+)x(+)4(−)); −1.07% in assay [2] (genotype B(+)x(−)4(+)); −0.93% in assay [2] (genotype B(+)x(−)4(−)); 7.87% in assay [2] (genotype B(−)X(+)4(+)); 2.78% in assay [2] (genotype B(−)X(+)4(−)). The results for the “Average therapeutic effect (%)” value in assay [2] (genotype B(−)X(−)4(+)) and in assay [2] (genotype B(−)X(−)4(−)) were −2.52% and −0.94%, respectively. Also, the “sensitivity to the medicine relative to the other two medicines” value in assay [2] (genotypes [B(−) X(+) 4(−)], [B(−) X(+) 4(+)], [B(+) X(+) 4(−)] and [B(+) X(+) 4(+)]) was “higher than the sensitivity to vitamin D and the sensitivity to vitamin K2”. The “Anticipated therapeutic effect value (index of change in bone mineral density) after 6 month administration of a medicine, Average” value in assay [2] turned out to be 3.26%. In addition, in assay [3] (ER genotype PpXx compared with other genotype groups), the sensitivity to estrogen entry is given as “significantly higher”.
